# Results published in US20230348779A1, “FLUORESCENT COMPOUND AND FLUORESCENTLY LABELED BIOLOGICAL SUBSTANCE USING THE SAME” (FUJIFILM Corporation, priority 2021, published 2023).
# Columns and labels:
# Format in all cases: physicochemical
# [1] = Evaluation of water solubility; settings: PBS pH 7.4, 1% DMSO, 200 μM if completely dissolved, filtrate concentration by UHPLC; for solubility at 30 min: PBS pH 7.4 with 1% DMSO, aqueous buffer, kinetic from dmso stock
# Description: 5 μL of a DMSO solution having a concentration of 20 mM of the above compound (hereinafter, referred to as a sample) and 495 μL of PBS having a pH of 7.4 were added and mixed in a 1.5 mL Eppendorf tube and stirred with a multi-shaker MS300 (product name, AS ONE Corporation) at 2,000 rpm for 30 minutes. The obtained mixed solution was allowed to be left for 60 minutes with light shielding and then subjected to centrifugal precipitation (12,000 rpm, 5 minutes). For the filtrate filtered using a filter having a pore diameter of […], the sample concentration was measured with Nexera UHPLC [product name, manufactured by Shimadzu Corporation, column: Shim-pack XR-ODSII] (the sample concentration is 200 μM in a case where the sample is completely dissolved) and evaluated based on the following evaluation standards.
# Regarding the water solubility, a high evaluation rank is highly preferable since the hydrophilicity is high, and in the present test, it is preferable that the water solubility satisfies the evaluation rank “C” or higher from the viewpoint of practicality as the fluorescent compound.
# —Evaluation Standards for Water Solubility— • A: 100 μM or more • B: 10 μM or more and less than 100 μM • C: 1 μM or more and less than 10 μM • D: Less than 1 μM, or water solubility is low and thus concentration cannot be measured.
# [2] = Evaluation of fluorescence quantum yield; settings: PBS solution (pH 7.4)
# Description: A PBS solution (pH 7.4) of the above compound was evaluated according to the method described in the following reference document.
# “A Guide to Recording Fluorescence Quantum Yields” (a HORIBA Scientific document, available from https://www.horiba.com/fileadmin/uploads/Scientific/Documents/Fluorescence/quantumyields trad.pdf)
# Regarding the fluorescence quantum yield, a high evaluation rank is highly preferable since the fluorescence quantum yield is excellent, and in the present test, it is preferable that the fluorescence quantum yield satisfies the evaluation rank “C” or higher from the viewpoint of practicality as the fluorescent compound.
# —Evaluation Standards for Fluorescence Quantum Yield— • A: 0.5 or more • B: 0.3 or more and less than 0.5 • C: 0.1 or more and less than 0.3 • D: less than 0.1 • E: not evaluable due to low water solubility
# [3] = Evaluation of maximum molar absorption coefficient; settings: PBS solution (pH 7.4)
# Description: A PBS solution (pH 7.4) of the above compound was evaluated according to the method described in the following reference document. The unit of the maximum molar absorption coefficient in the following evaluation standard is mol^−1 Lcm^−1.
# “TECH TIP #6 Extinction Coefficients” (a document from Thermo Scientific, Inc., available from https://assets.thermofisher.com/TFS-Assets/LSG/Application-Notes/TR0006-Extinction-coeffi cients.pdf)
# Regarding the maximum molar absorption coefficient, a high evaluation rank is highly preferable since the maximum molar absorption coefficient is excellent, and in the present test, it is preferable that the maximum molar absorption coefficient satisfies the evaluation rank “C” or higher from the viewpoint of practicality as the fluorescent compound.
# —Evaluation Standard for Maximum Molar Absorption Coefficient— • A: 100,000 or more • B: 50,000 or more and less than 100,000 • C: 10,000 or more and less than 50,000 • D: less than 10,000 • E: not evaluable due to low water solubility
# [4] = Evaluation of light resistance; settings: PBS pH 7.4, xenon lamp 22 mW/cm^2, exposure time until absorbance at absorption peak decreases by 20%
# Description: The compound synthesized above was dissolved in a PBS solution (pH 7.4) so that the absorbance at the absorption peak wavelength was 0.095 to 0.105. In a state where this solution was exposed using a merry-go-round type light irradiator (xenon lamp UXL-500D-O manufactured by Ushio Inc., HA-50 filter, Y44 filter, exposure intensity: 22 mW/cm^2 (in terms of 500 nm)), the absorbance at the absorption peak wavelength of each compound was measured over time with a spectrometer (Agilent 8453, manufactured by Agilent Technologies, Inc.). The absorbance at the absorption peak wavelength before light exposure was set to 100% and the light exposure time until the absorbance at this absorption peak wavelength decreases by 20% (the absorbance at the absorption peak wavelength reaches 80%) was measured. The results were evaluated based on the following evaluation standards.
# A high evaluation rank is highly preferable since stability is kept for a long time, and in the present test, it is preferable that the light resistance satisfies the evaluation rank “B” or higher from the viewpoint of practicality as the fluorescent compound.
# —Evaluation Standards for Light Resistance— • A: 100 hours or more • B: 50 hours or more and less than 100 hours • C: 25 hours or more and less than 50 hours • D: 2 hours or more and less than 25 hours • E: Less than 2 hours • F: Not evaluable due to low water solubility
Water solubility [1],Compound,solubility at 30 min [1] [µM],Fluorescence quantum yield [2],Maximum molar absorption coefficient [3],Light resistance [4],Fluorescence quantum yield (comparison in words) [2]
,C=C[Si]1(C)C2=CC(=[N+](C)C)C=CC2=C(c2ccc(C(=O)[O-])cc2F)c2ccc(N(C)C)cc21 (stereo not shown) [Compound (2)],1 to 10,B (0.3 or more and less than 0.5),"A (100,000 or more)",A (100 hours or more),
,C=C[Si]1(C)C2=CC(=[N+](C)C)C=CC2=C(c2c(OC)cc(C(=O)[O-])cc2OC)c2ccc(N(C)C)cc21 (stereo not shown) [Compound (4)],1 to 10,B (0.3 or more and less than 0.5),"A (100,000 or more)",A (100 hours or more),
,C=C[Si]1(C)C2=CC(=[N+](C)C)C=CC2=C(c2sc(C(=O)[O-])cc2C)c2ccc(N(C)C)cc21 (stereo not shown) [Compound (5)],1 to 10,D (less than 0.1),"A (100,000 or more)",A (100 hours or more),
,C=C[Si]1(C)C2=CC(=[N+]3CCS(=O)(=O)CC3)C=CC2=C(c2c(F)cc(C(=O)[O-])cc2F)c2ccc(N3CCS(=O)(=O)CC3)cc21 (stereo not shown) [Compound (6)],1 to 10,B (0.3 or more and less than 0.5),"A (100,000 or more)",A (100 hours or more),exhibits a better fluorescence quantum yield as compared with the compound (1)
,C=C[Si]1(C)C2=C/C(=N/C)C=CC2=C(c2c(F)cc(C(=O)O)cc2F)c2ccc(NC)cc21 (stereo not shown) [Compound (7)],1 to 10,B (0.3 or more and less than 0.5),"A (100,000 or more)",A (100 hours or more),
,C=C[Si]1(C)C2=C/C(=N/C)C=CC2=C(c2sc(C(=O)O)cc2C)c2ccc(NC)cc21 (stereo not shown) [Compound (8)],1 to 10,C (0.1 or more and less than 0.3),"B (50,000 or more and less than 100,000)",A (100 hours or more),
,C=C[Si]1(C)C2=C/C(=N/C)C=CC2=C(c2c(F)cc(C(=O)NCCOCCOCCOCCOCCC(=O)O)cc2F)c2ccc(NC)cc21 (stereo not shown) [Compound (9)],10 to 100,B (0.3 or more and less than 0.5),"A (100,000 or more)",A (100 hours or more),
,C=C[Si]1(C)C2=CC(=[N+]3CC(F)C3)C=CC2=C(c2c(OC)cc(C(=O)[O-])cc2OC)c2ccc(N3CC(F)C3)cc21 (stereo not shown) [Compound (13)],1 to 10,A (0.5 or more),"B (50,000 or more and less than 100,000)",,
,C=C[Si]1(C)C2=C/C(=[N+]3\CCC(F)C3)C=CC2=C(c2c(OC)cc(C(=O)[O-])cc2OC)c2ccc(N3CCC(F)C3)cc21 (stereo not shown) [Compound (14)],1 to 10,A (0.5 or more),"B (50,000 or more and less than 100,000)",,
,C=C[Si]1(C)C2=C/C(=[N+](\C)CC(F)(F)F)C=CC2=C(c2c(OC)cc(C(=O)[O-])cc2OC)c2ccc(N(C)CC(F)(F)F)cc21 (stereo not shown) [Compound (15)],1 to 10,A (0.5 or more),"C (10,000 or more and less than 50,000)",,exhibits a better fluorescence quantum yield as compared with the compound (4)
A (100 μM or more),AlexaFluor647,,B (0.3 or more and less than 0.5),"A (100,000 or more)",D (2 hours or more and less than 25 hours),
